In the NIST ThermoML archive (doi:10.1016/j.jct.2014.05.020):
± gives the expanded uncertainty stated by the source.

Experiment: excess molar enthalpy (molar enthalpy of mixing); xn = mol fraction of the nth substance listed
Details: Flow calorimetry

C1CCCCC1 [cyclohexane] + c1ccccc1
Details	excess molar enthalpy [kcal/mol]
423.2 K, 25000 kPa, Liquid, x2 = 0.829	0.0735 ± 0.00311
423.2 K, 25000 kPa, Liquid, x2 = 0.8729	0.0576 ± 0.00311
423.2 K, 25000 kPa, Liquid, x2 = 0.916	0.0394 ± 0.00335
423.2 K, 25000 kPa, Liquid, x2 = 0.9584	0.0193 ± 0.00335
473.2 K, 5000 kPa, Liquid, x2 = 0.1189	0.0453 ± 0.00287
473.2 K, 5000 kPa, Liquid, x2 = 0.1765	0.0633 ± 0.00287
473.2 K, 5000 kPa, Liquid, x2 = 0.233	0.0777 ± 0.00287
473.2 K, 5000 kPa, Liquid, x2 = 0.3424	0.0989 ± 0.00287
473.2 K, 5000 kPa, Liquid, x2 = 0.4475	0.11 ± 0.00287
473.2 K, 5000 kPa, Liquid, x2 = 0.5485	0.111 ± 0.00287
473.2 K, 5000 kPa, Liquid, x2 = 0.6457	0.103 ± 0.00287
473.2 K, 5000 kPa, Liquid, x2 = 0.7392	0.0873 ± 0.00287
473.2 K, 5000 kPa, Liquid, x2 = 0.8293	0.0633 ± 0.00287
473.2 K, 5000 kPa, Liquid, x2 = 0.8732	0.0486 ± 0.00311
473.2 K, 5000 kPa, Liquid, x2 = 0.9162	0.0332 ± 0.00311
473.2 K, 5000 kPa, Liquid, x2 = 0.9585	0.0184 ± 0.00311
473.2 K, 15000 kPa, Liquid, x2 = 0.1188	0.0434 ± 0.00287
473.2 K, 15000 kPa, Liquid, x2 = 0.1763	0.0605 ± 0.00287
473.2 K, 15000 kPa, Liquid, x2 = 0.2327	0.075 ± 0.00287
473.2 K, 15000 kPa, Liquid, x2 = 0.3421	0.0956 ± 0.00287
473.2 K, 15000 kPa, Liquid, x2 = 0.4471	0.106 ± 0.00287
473.2 K, 15000 kPa, Liquid, x2 = 0.5482	0.107 ± 0.00287
473.2 K, 15000 kPa, Liquid, x2 = 0.6454	0.1 ± 0.00287
473.2 K, 15000 kPa, Liquid, x2 = 0.7389	0.0848 ± 0.00287
473.2 K, 15000 kPa, Liquid, x2 = 0.8291	0.0615 ± 0.00287
473.2 K, 15000 kPa, Liquid, x2 = 0.873	0.047 ± 0.00311
473.2 K, 15000 kPa, Liquid, x2 = 0.9161	0.0316 ± 0.00311
473.2 K, 15000 kPa, Liquid, x2 = 0.9584	0.0173 ± 0.00311
473.2 K, 25000 kPa, Liquid, x2 = 0.1187	0.042 ± 0.00287
473.2 K, 25000 kPa, Liquid, x2 = 0.1762	0.0588 ± 0.00287
473.2 K, 25000 kPa, Liquid, x2 = 0.2325	0.0729 ± 0.00287
473.2 K, 25000 kPa, Liquid, x2 = 0.3418	0.0929 ± 0.00287
473.2 K, 25000 kPa, Liquid, x2 = 0.4469	0.103 ± 0.00287
473.2 K, 25000 kPa, Liquid, x2 = 0.5479	0.104 ± 0.00287
473.2 K, 25000 kPa, Liquid, x2 = 0.6451	0.0968 ± 0.00287
473.2 K, 25000 kPa, Liquid, x2 = 0.7388	0.0815 ± 0.00287
473.2 K, 25000 kPa, Liquid, x2 = 0.829	0.0584 ± 0.00287
473.2 K, 25000 kPa, Liquid, x2 = 0.8729	0.0442 ± 0.00311
473.2 K, 25000 kPa, Liquid, x2 = 0.916	0.0288 ± 0.00311
473.2 K, 25000 kPa, Liquid, x2 = 0.9584	0.0149 ± 0.00287
498.2 K, 5000 kPa, Liquid, x2 = 0.1189	0.0447 ± 0.00287
498.2 K, 5000 kPa, Liquid, x2 = 0.1765	0.0625 ± 0.00287
498.2 K, 5000 kPa, Liquid, x2 = 0.233	0.0774 ± 0.00287
498.2 K, 5000 kPa, Liquid, x2 = 0.3424	0.0984 ± 0.00287
498.2 K, 5000 kPa, Liquid, x2 = 0.4475	0.109 ± 0.00287
498.2 K, 5000 kPa, Liquid, x2 = 0.5485	0.11 ± 0.00287
498.2 K, 5000 kPa, Liquid, x2 = 0.6457	0.102 ± 0.00287
498.2 K, 5000 kPa, Liquid, x2 = 0.7392	0.0863 ± 0.00287
498.2 K, 5000 kPa, Liquid, x2 = 0.8293	0.0618 ± 0.00287
498.2 K, 5000 kPa, Liquid, x2 = 0.8732	0.0465 ± 0.00311
498.2 K, 5000 kPa, Liquid, x2 = 0.9162	0.0295 ± 0.00311
498.2 K, 15000 kPa, Liquid, x2 = 0.1188	0.0418 ± 0.00287
498.2 K, 15000 kPa, Liquid, x2 = 0.1763	0.0582 ± 0.00287
498.2 K, 15000 kPa, Liquid, x2 = 0.2327	0.0716 ± 0.00287
498.2 K, 15000 kPa, Liquid, x2 = 0.3421	0.091 ± 0.00287
498.2 K, 15000 kPa, Liquid, x2 = 0.4471	0.101 ± 0.00287
498.2 K, 15000 kPa, Liquid, x2 = 0.5482	0.102 ± 0.00287
498.2 K, 15000 kPa, Liquid, x2 = 0.6454	0.0943 ± 0.00287
498.2 K, 15000 kPa, Liquid, x2 = 0.7389	0.0791 ± 0.00287
498.2 K, 15000 kPa, Liquid, x2 = 0.8291	0.0565 ± 0.00287
498.2 K, 15000 kPa, Liquid, x2 = 0.873	0.042 ± 0.00311
498.2 K, 15000 kPa, Liquid, x2 = 0.9161	0.0262 ± 0.00311
523.2 K, 5000 kPa, Liquid, x2 = 0.1189	0.0458 ± 0.00311
523.2 K, 5000 kPa, Liquid, x2 = 0.1765	0.0644 ± 0.00311
523.2 K, 5000 kPa, Liquid, x2 = 0.233	0.0798 ± 0.00287
523.2 K, 5000 kPa, Liquid, x2 = 0.3424	0.101 ± 0.00287
523.2 K, 5000 kPa, Liquid, x2 = 0.4475	0.112 ± 0.00287
523.2 K, 5000 kPa, Liquid, x2 = 0.5485	0.114 ± 0.00287
523.2 K, 5000 kPa, Liquid, x2 = 0.6457	0.105 ± 0.00287
523.2 K, 5000 kPa, Liquid, x2 = 0.7392	0.0877 ± 0.00287
523.2 K, 5000 kPa, Liquid, x2 = 0.8293	0.0619 ± 0.00311
523.2 K, 5000 kPa, Liquid, x2 = 0.8732	0.0463 ± 0.00311
523.2 K, 5000 kPa, Liquid, x2 = 0.9162	0.0303 ± 0.00311
523.2 K, 5000 kPa, Liquid, x2 = 0.9585	0.0173 ± 0.00287
523.2 K, 15000 kPa, Liquid, x2 = 0.1188	0.0387 ± 0.00287
523.2 K, 15000 kPa, Liquid, x2 = 0.1763	0.0539 ± 0.00287
523.2 K, 15000 kPa, Liquid, x2 = 0.2327	0.0667 ± 0.00287
523.2 K, 15000 kPa, Liquid, x2 = 0.3421	0.0855 ± 0.00287
523.2 K, 15000 kPa, Liquid, x2 = 0.4471	0.0946 ± 0.00287
523.2 K, 15000 kPa, Liquid, x2 = 0.5482	0.0951 ± 0.00287
523.2 K, 15000 kPa, Liquid, x2 = 0.6454	0.088 ± 0.00287
523.2 K, 15000 kPa, Liquid, x2 = 0.7389	0.0732 ± 0.00287
523.2 K, 15000 kPa, Liquid, x2 = 0.8291	0.0516 ± 0.00287
523.2 K, 15000 kPa, Liquid, x2 = 0.873	0.0391 ± 0.00287
523.2 K, 15000 kPa, Liquid, x2 = 0.9161	0.025 ± 0.00287
523.2 K, 15000 kPa, Liquid, x2 = 0.9584	0.0128 ± 0.00287
523.2 K, 25000 kPa, Liquid, x2 = 0.1187	0.0369 ± 0.00287
523.2 K, 25000 kPa, Liquid, x2 = 0.1762	0.0516 ± 0.00287
523.2 K, 25000 kPa, Liquid, x2 = 0.2325	0.0643 ± 0.00287
523.2 K, 25000 kPa, Liquid, x2 = 0.3418	0.0817 ± 0.00287
523.2 K, 25000 kPa, Liquid, x2 = 0.4469	0.0899 ± 0.00287
523.2 K, 25000 kPa, Liquid, x2 = 0.5479	0.0903 ± 0.00287
523.2 K, 25000 kPa, Liquid, x2 = 0.6451	0.0836 ± 0.00287
523.2 K, 25000 kPa, Liquid, x2 = 0.7388	0.0694 ± 0.00287
523.2 K, 25000 kPa, Liquid, x2 = 0.829	0.0483 ± 0.00287
523.2 K, 25000 kPa, Liquid, x2 = 0.8729	0.0367 ± 0.00287
523.2 K, 25000 kPa, Liquid, x2 = 0.916	0.0234 ± 0.00287
523.2 K, 25000 kPa, Liquid, x2 = 0.9584	0.0123 ± 0.00287
573.2 K, 15000 kPa, Fluid (supercritical or subcritical phases), x2 = 0.1188	0.0358 ± 0.00287
573.2 K, 15000 kPa, Fluid (supercritical or subcritical phases), x2 = 0.1763	0.0503 ± 0.00287
573.2 K, 15000 kPa, Fluid (supercritical or subcritical phases), x2 = 0.2327	0.0611 ± 0.00287
573.2 K, 15000 kPa, Fluid (supercritical or subcritical phases), x2 = 0.3421	0.0788 ± 0.00287
573.2 K, 15000 kPa, Fluid (supercritical or subcritical phases), x2 = 0.4471	0.088 ± 0.00263
573.2 K, 15000 kPa, Fluid (supercritical or subcritical phases), x2 = 0.5482	0.0891 ± 0.00263
573.2 K, 15000 kPa, Fluid (supercritical or subcritical phases), x2 = 0.6454	0.0821 ± 0.00287
573.2 K, 15000 kPa, Fluid (supercritical or subcritical phases), x2 = 0.7389	0.0687 ± 0.00287
573.2 K, 15000 kPa, Fluid (supercritical or subcritical phases), x2 = 0.8291	0.0493 ± 0.00287
573.2 K, 15000 kPa, Fluid (supercritical or subcritical phases), x2 = 0.873	0.0361 ± 0.00287
573.2 K, 15000 kPa, Fluid (supercritical or subcritical phases), x2 = 0.9161	0.025 ± 0.00287
573.2 K, 15000 kPa, Fluid (supercritical or subcritical phases), x2 = 0.9584	0.012 ± 0.00287
573.2 K, 25000 kPa, Fluid (supercritical or subcritical phases), x2 = 0.1187	0.0333 ± 0.00287
573.2 K, 25000 kPa, Fluid (supercritical or subcritical phases), x2 = 0.1762	0.0474 ± 0.00287
573.2 K, 25000 kPa, Fluid (supercritical or subcritical phases), x2 = 0.2325	0.0572 ± 0.00287
573.2 K, 25000 kPa, Fluid (supercritical or subcritical phases), x2 = 0.3418	0.0738 ± 0.00287
573.2 K, 25000 kPa, Fluid (supercritical or subcritical phases), x2 = 0.4469	0.0825 ± 0.00263
573.2 K, 25000 kPa, Fluid (supercritical or subcritical phases), x2 = 0.5479	0.0834 ± 0.00263
573.2 K, 25000 kPa, Fluid (supercritical or subcritical phases), x2 = 0.6451	0.0767 ± 0.00263
573.2 K, 25000 kPa, Fluid (supercritical or subcritical phases), x2 = 0.7388	0.0641 ± 0.00287
573.2 K, 25000 kPa, Fluid (supercritical or subcritical phases), x2 = 0.829	0.045 ± 0.00287
573.2 K, 25000 kPa, Fluid (supercritical or subcritical phases), x2 = 0.8729	0.0332 ± 0.00287
573.2 K, 25000 kPa, Fluid (supercritical or subcritical phases), x2 = 0.916	0.02 ± 0.00287
573.2 K, 25000 kPa, Fluid (supercritical or subcritical phases), x2 = 0.9584	0.00954 ± 0.00287
